Where two headings read alike, the source gives them in different places.
Tests used:
hP2X2/3H = target: T1, hP2X2/3H (Homo sapiens, UniProt P56373+Q9UBL9); test: Calcium uptake assay (P2X antagonist assay), P2X2/3 heteromer; format: cell-based; settings: hP2X2/3H
T1 construct: expressed in transfected cells; host or cells: e.g. HEK293 or 1321N1
T1 sequence (Q9UBL9 1-471): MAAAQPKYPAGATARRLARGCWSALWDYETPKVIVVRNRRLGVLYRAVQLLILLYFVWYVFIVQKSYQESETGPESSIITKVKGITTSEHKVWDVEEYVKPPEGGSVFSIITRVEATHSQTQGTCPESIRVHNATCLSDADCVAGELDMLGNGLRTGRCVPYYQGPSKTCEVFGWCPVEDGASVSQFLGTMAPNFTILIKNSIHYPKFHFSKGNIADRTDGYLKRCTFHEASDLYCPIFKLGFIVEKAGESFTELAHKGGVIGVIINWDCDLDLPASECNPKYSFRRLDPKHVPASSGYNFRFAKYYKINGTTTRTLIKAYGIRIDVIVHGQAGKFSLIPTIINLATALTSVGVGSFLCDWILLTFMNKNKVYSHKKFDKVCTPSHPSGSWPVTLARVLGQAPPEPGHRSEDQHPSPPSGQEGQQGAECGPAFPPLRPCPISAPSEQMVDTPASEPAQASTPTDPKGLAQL
T1 sequence (P56373 1-397): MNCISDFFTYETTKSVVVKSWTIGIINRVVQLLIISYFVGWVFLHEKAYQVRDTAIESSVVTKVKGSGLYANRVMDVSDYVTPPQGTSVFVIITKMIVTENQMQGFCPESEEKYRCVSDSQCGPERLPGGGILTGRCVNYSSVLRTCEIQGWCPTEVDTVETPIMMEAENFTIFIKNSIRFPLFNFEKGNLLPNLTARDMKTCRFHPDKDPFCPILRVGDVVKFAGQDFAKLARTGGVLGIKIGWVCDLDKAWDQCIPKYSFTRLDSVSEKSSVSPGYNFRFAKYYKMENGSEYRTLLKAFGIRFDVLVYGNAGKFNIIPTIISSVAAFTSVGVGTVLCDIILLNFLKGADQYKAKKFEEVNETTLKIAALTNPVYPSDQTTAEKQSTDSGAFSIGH
From the text: (§1) The human P2X2/3 chimera clone is created as described by Neelands et al, and then cloned into an expression vector as above. Receptors are expressed in cells (e.g., HEK293 or 1321N1 (obtained from the ECACC)) via transient transfection using standard lipid mediated transfection, or by creation of stable transfectants for each receptor. For expression of the P2X2/3 heteromeric receptor, the P2X3 expression vector is stably transfected into a cell line already stably expressing P2X2. P2X2/3 heteromer function is isolated using pharmacological methods. Cell lines are maintained in DMEM+5% Glutamax, the appropriate level of selective antibiotic, and 10% heat inactivated FBS.
(§2) Functional activity of compounds at the P2X receptor is determined by measuring their ability to inhibit agonist-induced calcium influx. Compounds are tested for antagonist activity against the P2X2/3 chimera, the P2X3 homomer, or the P2X2/3 heteromer. At the start of each screening day, the agonist EC50 is determined. Compound % inhibition or IC50s are subsequently determined using a predetermined agonist concentration (EC50-90 depending on cell line) as a stimulus. The agonists used are αβMeATP, ATP, or other ATP analogs. Compounds may be tested at concentrations ranging from 1 pM to 10 μM.
(§3) To test for antagonist activity, cells expressing the appropriate receptor are seeded onto 96 or 384 well plates 18-24 hours prior to assay. […] Plates are incubated at 37° C. and then equilibrated at room temperature. Antagonism of agonist-induced calcium influx is measured using a fluorescent imaging plate reader (e.g. FLIPR^TETRA, Molecular Devices, Sunnyvale, Calif.). The assay comprises two stages: a pre-treatment phase followed by a treatment phase. Compounds may be tested as follows: For the pre-treatment phase, 50 μL of 3× concentration of test compound in HBSS is added to cells containing […], of dye loading media to achieve a final concentration of 1× test compound. For the treatment phase, at a set interval after pre-treatment (1-30 minutes), 50 μL of 1× test compound plus 4× agonist solution is added, resulting in a final concentration of 1× compound and 1× agonist. […] Responses are measured as (peak fluorescence after agonist addition) minus (baseline fluorescence prior to treatment). Percent inhibition is calculated as follows:
(§4) [formula] IC50 values are determined by analyzing dose response data in a 4 parameter logistic fit using GraphPad Prizm.

hP2X3 = target: T2, hP2X3 (Homo sapiens, UniProt P56373); test: Calcium uptake assay (P2X antagonist assay), P2X3 homomer; format: cell-based; settings: hP2X3
T2 construct: expressed in transfected cells; host or cells: e.g. HEK293 or 1321N1
T2 sequence (P56373 1-397): T1 sequence (P56373 1-397)
From the text: as §1, §2, §3, §4

[1] = Ca influx (calcium uptake assay), read-out: IC50 hP2X2/3H
[2] = Ca influx (calcium uptake assay), read-out: IC50 hP2X3
[3] = calcium uptake assay, read-out: IC50 hP2X2/3H (nM), Ca Influx
[4] = calcium uptake assay, read-out: IC50 hP2X3 (nM), Ca Influx

| Compound | IC50 (hP2X2/3H; [1]) [nM] | IC50 (hP2X3; [2]) [nM] | IC50 (hP2X2/3H; [3]) [nM] | IC50 (hP2X3; [4]) [nM] |
| --- | --- | --- | --- | --- |
| Cc1ccc(-c2cc(C(=O)N[C@H](CCO)c3ccc(C)nc3)cc(C(=O)N(C)CC(C)C)c2)cc1 [Compound 13, (R)—N3-(3-Hydroxy-1-(6-methylpyridin-3-yl)propyl)-N5-isobutyl-N5,4′-dimethylbiphenyl-3,5-dicarboxamide] | – | – | 100 to 500 | 100 to 500 |
| Cc1ccc(-c2cc(C(=O)NCc3ccc4c(c3)OCO4)cc(C(=O)N3CCCC3)c2)cc1 [Compound 98] | – | – | 100 to 500 | 100 to 500 |
| Cc1ccc(-c2cc(C(=O)NC(C)c3ccc(C)nc3)cc(C(=O)N3CCCC3)c2)cc1 (stereo not shown) [Compound 103] | – | – | < 100 | < 100 |
| Cc1ccc(-c2cc(C(=O)N[C@@H](C)CO)cc(C(=O)N[C@@H](C)CO)c2)cc1 [Compound 5] | – | – | 501 to 1000 | > 1000 |
| Cc1ccc(CNC(=O)c2cc(-c3ccc(Cl)c(F)c3)cc(S(C)(=O)=O)c2)cn1 [Compound 136] | – | – | > 1000 | 501 to 1000 |
| Cc1ccc(-c2cc(C(=O)NCc3cnc(C)nc3)cc(C(=O)N3CCOCC3)c2)cc1 [Compound 24] | – | – | 100 to 500 | < 100 |
| Cc1ccc(CNC(=O)c2cc(-c3ccc(C)c(C)c3)cc(S(C)(=O)=O)c2)cn1 [Compound 121] | – | – | > 1000 | > 1000 |
| Cc1ccc(-c2cc(C(=O)N[C@H](C)c3ccc(C(F)(F)F)nc3)cc(S(C)(=O)=O)c2)cc1 [Compound 35] | – | – | < 100 | < 100 |
| Cc1ccc(-c2cc(S(=O)(=O)N3CCCC3)cc(C(=O)NCc3ccc(C)nc3)c2C)cc1 [Compound 68] | – | – | > 1000 | 100 to 500 |
| Cc1ccc(-c2cc(C(=O)NCc3ccc(Cl)nc3)cc(C(=O)N3CCCC3)c2)cc1 [Compound 91] | – | – | < 100 | < 100 |
| Cc1ccc(CNC(=O)c2cc(-c3ccc(Cl)c(Cl)c3)cc(S(C)(=O)=O)c2)cn1 [Compound 112] | – | – | > 1000 | > 1000 |
| Cc1ccc(-c2cc(C(=O)NCc3ccc(C)nc3)cc(C(=O)N(C)c3ccncc3)c2)cc1 [Compound 163, N3,4′-Dimethyl-N5-((6-methylpyridin-3-yl)methyl)-N3-(pyridin-4-yl)biphenyl-3,5-dicarboxamide] | – | – | 100 to 500 | < 100 |
| Cc1ccc(-c2cc(C(=O)NCc3ccc(C(F)(F)F)c(F)c3)cc(C(=O)N3CC[C@@H](O)C3)c2)nc1 [Compound 151] | – | – | 100 to 500 | < 100 |
| COc1ncc(CNC(=O)c2cc(C(=O)N3CCCC3)cc(-c3ccc(C)cc3)c2)cn1 [Compound 48] | – | – | < 100 | < 100 |
| Cc1ccc(-c2cc(C(=O)NCc3ccc(C)nc3)cc(C(=O)N3CC(O)C3)c2)c(C#N)c1 [Compound 63, 2′-Cyano-5-(3-hydroxyazetidine-1-carbonyl)-4′-methyl-N-((6-methylpyridin-3-yl)methyl)biphenyl-3-carboxamide] | – | – | < 100 | < 100 |
| Cc1ccc(-c2cc(C(=O)NCc3ccc(C)c(S(C)(=O)=O)c3)cc(C(=O)N3CCCC3)c2)cc1 [Compound 71] | – | – | < 100 | < 100 |
| Cc1ccc(-c2cc(C(=O)N[C@H](C)c3cnc(C)c(Cl)c3)cc(S(C)(=O)=O)c2)cc1 [Compound 149] | – | – | 100 to 500 | 100 to 500 |

Results, then the compound that gave them:

| IC50 (hP2X2/3H; [1]) [nM] | IC50 (hP2X3; [2]) [nM] | IC50 (hP2X2/3H; [3]) [nM] | IC50 (hP2X3; [4]) [nM] | Compound |
| --- | --- | --- | --- | --- |
| < 100 | < 100 | – | – | Cc1ccc(-c2cc(C(=O)N[C@H](C)c3ccc(C)nc3)cc(C(O)c3ccccn3)c2)cc1 (stereo partly drawn) [Compound 241, 5-(Hydroxy(pyridin-2-yl)methyl)-4′-methyl-N—((R)-1-(6-methylpyridin-3-yl)ethyl)biphenyl-3-carboxamide] |
| 100 to 500 | < 100 | – | – | Cc1ccc(-c2cc(Oc3ncccn3)cc(C(=O)N[C@H](C)c3ccc(C)nc3)c2)c(C#N)c1 [Compound 246] |
| 100 to 500 | < 100 | – | – | Cc1ccc(-c2cc(C(=O)N[C@H](C)c3ccc(C)nc3)cc(C(O)CO)c2)nc1 (stereo partly shown) [Compound 319] |
| < 100 | < 100 | – | – | Cc1ccc(-c2cc(OC3CCOC3)cc(C(=O)N[C@H](C)c3cnc(C)nc3)c2)cc1 (stereo partly shown) [Compound 359] |
| > 1000 | > 1000 | – | – | Cc1ccc(-c2cc(C(=O)NC(c3ccc(C)nc3)C(F)(F)F)cc(S(C)(=O)=O)c2)cc1 (stereo not shown) [Compound 213] |
| 100 to 500 | < 100 | – | – | COCCOc1cc(C(=O)NCc2ccc(C)nc2)cc(-c2ccc(C)cc2C#N)c1 [Compound 263] |
| – | – | < 100 | < 100 | Cc1ccc(-c2cc(C(=O)NCc3cnc(C)nc3)cc(S(=O)(=O)CC(C)C)c2)cc1 [Compound 184] |
| 100 to 500 | < 100 | – | – | Cc1ccc(-c2cc(OCCO)cc(C(=O)NCc3ccc(C)nc3)c2)cc1 [Compound 301] |
| 100 to 500 | < 100 | – | – | Cc1ccc(-c2cc(OCC3CNCCO3)cc(C(=O)N[C@H](C)c3ccc(C)nc3)c2)cc1 (stereo partly shown) [Compound 325] |
| < 100 | < 100 | – | – | Cc1ccc(-c2cc(Oc3nc(Cl)cs3)cc(C(=O)N[C@H](C)c3ccc(C)nc3)c2)c(C#N)c1 [Compound 395] |
| < 100 | 100 to 500 | – | – | Cc1ccc(-c2cc(OCC3CCOC3)cc(C(=O)N[C@H](C)c3ccc(C)nc3)c2)cc1 (stereo partly shown) [Compound 309] |
| 100 to 500 | < 100 | – | – | Cc1ncc(CNC(=O)c2cc(C(=O)N3CCCC3)cc(-c3ccc(Br)cc3)c2)cn1 [Compound 215] |
| 100 to 500 | < 100 | – | – | Cc1ccc(-c2cc(C(=O)NCc3ccc(C)nc3)cc(C(O)CN3CCCC3)c2)cc1 (stereo not shown) [Compound 230] |
| < 100 | 100 to 500 | – | – | Cc1ccc(-c2cc(C(=O)N[C@H](C)c3ccc(C)nc3)cc(C(O)c3ccccc3)c2)cc1 (stereo partly drawn) [Compound 227, 5-(Hydroxy(phenyl)methyl)-4′-methyl-N—((R)-1-(6-methylpyridin-3-yl)ethyl)biphenyl-3-carboxamide] |
| < 100 | < 100 | – | – | Cc1ccc(-c2cc(Oc3ccccn3)cc(C(=O)N[C@H](C)c3cnc(C)nc3)c2)nc1 [Compound 270] |
| < 100 | < 100 | – | – | COc1ccc([C@@H](CCO)NC(=O)c2cc(-c3ccc(C)cc3)cc(S(C)(=O)=O)c2)cn1 [Compound 222] |
| < 100 | < 100 | – | – | Cc1ccc(-c2cc(C(=O)NCc3ccc(C)nc3)cc(S(=O)(=O)C(C)C)c2)cc1 [Compound 199] |
| > 1000 | > 1000 | – | – | Cc1ccc(-c2cc(C(=O)NCc3cnc4[nH]ccc4c3)cc(C(=O)N3CCCC3)c2)cc1 [Compound 231] |
| – | – | < 100 | < 100 | Cc1ccc(-c2cc(C(=O)NCc3ccc(C)nc3)cc(C(=O)N3C4CCC3CC4)c2)cc1 [Compound 193] |
| – | – | < 100 | < 100 | Cc1ccc(-c2cc(C(=O)NCc3ccc(C)nc3)cc(C(=O)N3C(C)CCC3C)c2)cc1 (stereo not shown) [Compound 189] |
| < 100 | < 100 | – | – | Cc1ccc(-c2cc(C(=O)NCc3ccc(C)[n+]([O-])c3)cc(C(=O)N3CCCC3)c2)cc1 [Compound 224, 2-Methyl-5-((4′-methyl-5-(pyrrolidine-1-carbonyl)biphenyl-3-ylcarboxamido)methyl)pyridine 1-oxide] |

— patent publication US8946439B2, “Amide compounds, compositions and uses thereof” (Evotec AG, priority 2008, dated 2015)
